This note sets out measurements from US20230085307A1, “PYRIDAZINONE COMPOUND AND HERBICIDE” (NISSAN CHEMICAL CORPORATION, priority 2019, published 2023).

In the first test the test system is late watergrass. The experiment in a line: Test Example 2: herbicidal activity, application during weed generation under submerged conditions (Table 17, symbol A). In kind it is in vivo, late watergrass (Echinochloa oryzicola). The note with it: AAH 320 g/ha; application during weed generation, submerged conditions. The essentials: (§1)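 Alluvial soil in Wagner pots was flooded to 4 cm depth and sown with the three weeds together; pots were kept in a greenhouse at 25° C. to 30° C. At the one to two leaf stage, an emulsion formulation diluted in water to a set rate went onto the water surface; scored three weeks later.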
For the compound `CSCCSCc1ccc(-c2sc3ccccc3c2-c2c(O)c(C)nn(C)c2=O)cc1` [1-253], the “herbicidal effect rating, A: late watergrass” value was 3 (Herbicidal rate of 40% or more and less than 70%).

Take `Cc1ccc(-c2sc3ccc(F)cc3c2-c2c(O)c(C)nn(C)c2=O)cc1` [2-012]: the “herbicidal effect rating, A: late watergrass” value was 3 (Herbicidal rate of 40% or more and less than 70%).

On to `CCCC(=O)Oc1c(C)nn(C)c(=O)c1-c1c(-c2ccc(C)cc2)sc2ccc(F)cc12` [2-013], for which the “herbicidal effect rating, A: late watergrass” value is 4 (Herbicidal rate of 70% or more and less than 90%).

Another test concerns Japanese bulrush. Put plainly: Test Example 2: herbicidal activity, application during weed generation under submerged conditions (Table 17, symbol B). It counts as in vivo, Japanese bulrush (Schoenoplectus juncoides). The settings on record: AAH 320 g/ha; application during weed generation, submerged conditions. In outline:
as §1
As for `CSCCSCc1ccc(-c2sc3ccccc3c2-c2c(O)c(C)nn(C)c2=O)cc1` [1-253], the “herbicidal effect rating, B: Japanese bulrush” value (“herbicidal effect rating, B” for short) was 0 (Herbicidal rate of 5% or less (almost no effect)).

As for `Cc1ccc(-c2sc3ccc(F)cc3c2-c2c(O)c(C)nn(C)c2=O)cc1` [2-012], the “herbicidal effect rating, B” value was 3 (Herbicidal rate of 40% or more and less than 70%).

As for `CCCC(=O)Oc1c(C)nn(C)c(=O)c1-c1c(-c2ccc(C)cc2)sc2ccc(F)cc12` [2-013], the “herbicidal effect rating, B” value is 2 (Herbicidal rate of 20% or more and less than 40%).

Another test relates to oval-leafed pondweed. Put plainly: Test Example 2: herbicidal activity, application during weed generation under submerged conditions (Table 17, symbol C). The note with it: AAH 320 g/ha; application during weed generation, submerged conditions. In kind it is in vivo, oval-leafed pondweed (Monochoria vaginalis). The essentials: as §1
In the case of `CSCCSCc1ccc(-c2sc3ccccc3c2-c2c(O)c(C)nn(C)c2=O)cc1` [1-253], the “herbicidal effect rating, C: oval-leafed pondweed” value (“herbicidal effect rating, C” below) is 0 (Herbicidal rate of 5% or less (almost no effect)).

In the case of `Cc1ccc(-c2sc3ccc(F)cc3c2-c2c(O)c(C)nn(C)c2=O)cc1` [2-012], the “herbicidal effect rating, C” value is 0 (Herbicidal rate of 5% or less (almost no effect)).

On to `CCCC(=O)Oc1c(C)nn(C)c(=O)c1-c1c(-c2ccc(C)cc2)sc2ccc(F)cc12` [2-013], for which the “herbicidal effect rating, C” value was 3 (Herbicidal rate of 40% or more and less than 70%).

The subject of another test is southern crabgrass. Put plainly: Test Example 4: herbicidal effect by soil treatment (Table 19, symbol F). In kind it is in vivo, southern crabgrass (Digitaria ciliaris). The note with it: 320 g/ha. The essentials:
(§2)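 In this soil treatment, the formulated compound reached the seeds only through the soil: seeds were buried about 1.5 cm deep in sterilized diluvial soil, then the diluted emulsion was sprayed over the surface. After three weeks at 25° C. to 30° C. in a greenhouse, effects were graded on criteria from an earlier test.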
Turning to `Cc1ccc(-c2sc3ccc(F)cc3c2-c2c(O)c(C)nn(C)c2=O)cc1` [2-012], the “herbicidal effect rating, F: southern crabgrass” value is given as 5 (Herbicidal rate of 90% or more (almost completely withered)).

As for `CCCC(=O)Oc1c(C)nn(C)c(=O)c1-c1c(-c2ccc(C)cc2)sc2ccc(F)cc12` [2-013], the “herbicidal effect rating, F: southern crabgrass” value is 5 (Herbicidal rate of 90% or more (almost completely withered)).

The test is the same for the next values; noted with them: AAH 320 g/ha.
`CSCCSCc1ccc(-c2sc3ccccc3c2-c2c(O)c(C)nn(C)c2=O)cc1` [1-253]: the “F: southern crabgrass, herbicidal effect rating” value is 0 (Herbicidal rate of 5% or less (almost no effect)).

The subject of the next test is green foxtail. Put plainly: Test Example 4: herbicidal effect by soil treatment (Table 19, symbol G). It counts as in vivo, green foxtail (Setaria viridis). The note with it: 320 g/ha. In outline: as §2
For `Cc1ccc(-c2sc3ccc(F)cc3c2-c2c(O)c(C)nn(C)c2=O)cc1` [2-012], the “herbicidal effect rating, G: green foxtail” value was 5 (Herbicidal rate of 90% or more (almost completely withered)).

`CCCC(=O)Oc1c(C)nn(C)c(=O)c1-c1c(-c2ccc(C)cc2)sc2ccc(F)cc12` [2-013]: the “herbicidal effect rating, G: green foxtail” value was 5 (Herbicidal rate of 90% or more (almost completely withered)).

Staying with this test, now noted: AAH 320 g/ha.
For `CSCCSCc1ccc(-c2sc3ccccc3c2-c2c(O)c(C)nn(C)c2=O)cc1` [1-253], the “G: green foxtail, herbicidal effect rating” value is 0 (Herbicidal rate of 5% or less (almost no effect)).

The test system of the next test is barnyard grass. Put plainly: Test Example 4: herbicidal effect by soil treatment (Table 19, symbol H). It counts as in vivo, barnyard grass (Echinochloa crus-galli). The note with it: 320 g/ha. In outline:
as §2
In the case of `Cc1ccc(-c2sc3ccc(F)cc3c2-c2c(O)c(C)nn(C)c2=O)cc1` [2-012], the “herbicidal effect rating, H: barnyard grass” value is listed as 5 (Herbicidal rate of 90% or more (almost completely withered)).

In the case of `CCCC(=O)Oc1c(C)nn(C)c(=O)c1-c1c(-c2ccc(C)cc2)sc2ccc(F)cc12` [2-013], the “herbicidal effect rating, H: barnyard grass” value was 4 (Herbicidal rate of 70% or more and less than 90%).

The test is the same for the next values; noted with them: AAH 320 g/ha.
Turning to `CSCCSCc1ccc(-c2sc3ccccc3c2-c2c(O)c(C)nn(C)c2=O)cc1` [1-253], the “H: barnyard grass, herbicidal effect rating” value was 0 (Herbicidal rate of 5% or less (almost no effect)).

The test system of another test is wild oat. The experiment in a line: Test Example 4: herbicidal effect by soil treatment (Table 19, symbol I). It counts as in vivo, wild oat (Avena fatua). The note with it: 320 g/ha. The essentials:
as §2
`Cc1ccc(-c2sc3ccc(F)cc3c2-c2c(O)c(C)nn(C)c2=O)cc1` [2-012]: the “herbicidal effect rating, I: wild oat” value is 0 (Herbicidal rate of 5% or less (almost no effect)).

On to `CCCC(=O)Oc1c(C)nn(C)c(=O)c1-c1c(-c2ccc(C)cc2)sc2ccc(F)cc12` [2-013], for which the “herbicidal effect rating, I: wild oat” value is given as 0 (Herbicidal rate of 5% or less (almost no effect)).

The test is the same for the next values; noted with them: AAH 320 g/ha.
As for `CSCCSCc1ccc(-c2sc3ccccc3c2-c2c(O)c(C)nn(C)c2=O)cc1` [1-253], the “I: wild oat, herbicidal effect rating” value is 0 (Herbicidal rate of 5% or less (almost no effect)).

A further test deals with blackgrass. Put plainly: Test Example 4: herbicidal effect by soil treatment (Table 19, symbol J). In kind it is in vivo, blackgrass (Alopecurus myosuroides). The settings on record: 320 g/ha. In outline: as §2
Consider `Cc1ccc(-c2sc3ccc(F)cc3c2-c2c(O)c(C)nn(C)c2=O)cc1` [2-012], for which the “herbicidal effect rating, J: blackgrass” value is listed as 0 (Herbicidal rate of 5% or less (almost no effect)).

In the case of `CCCC(=O)Oc1c(C)nn(C)c(=O)c1-c1c(-c2ccc(C)cc2)sc2ccc(F)cc12` [2-013], the “herbicidal effect rating, J: blackgrass” value was 3 (Herbicidal rate of 40% or more and less than 70%).

The same test, now with this note: AAH 320 g/ha.
On to `CSCCSCc1ccc(-c2sc3ccccc3c2-c2c(O)c(C)nn(C)c2=O)cc1` [1-253], for which the “J: blackgrass, herbicidal effect rating” value is recorded as 0 (Herbicidal rate of 5% or less (almost no effect)).

Another test deals with velvetleaf. Put plainly: Test Example 4: herbicidal effect by soil treatment (Table 19, symbol M). In kind it is in vivo, velvetleaf (Abutilon theophrasti). The note with it: 320 g/ha. The essentials:
as §2
With `Cc1ccc(-c2sc3ccc(F)cc3c2-c2c(O)c(C)nn(C)c2=O)cc1` [2-012], the “herbicidal effect rating, M: velvetleaf” value is 4 (Herbicidal rate of 70% or more and less than 90%).

As for `CCCC(=O)Oc1c(C)nn(C)c(=O)c1-c1c(-c2ccc(C)cc2)sc2ccc(F)cc12` [2-013], the “herbicidal effect rating, M: velvetleaf” value was 3 (Herbicidal rate of 40% or more and less than 70%).

The test is the same for the next values; noted with them: AAH 320 g/ha.
For the compound `CSCCSCc1ccc(-c2sc3ccccc3c2-c2c(O)c(C)nn(C)c2=O)cc1` [1-253], the “M: velvetleaf, herbicidal effect rating” value is 0 (Herbicidal rate of 5% or less (almost no effect)).

The test system of another test is redroot pigweed. The experiment in a line: Test Example 4: herbicidal effect by soil treatment (Table 19, symbol N). In kind it is in vivo, redroot pigweed (Amaranthus retroflexus). The settings on record: 320 g/ha. In outline: as §2
In the case of `Cc1ccc(-c2sc3ccc(F)cc3c2-c2c(O)c(C)nn(C)c2=O)cc1` [2-012], the “herbicidal effect rating, N: redroot pigweed” value was 5 (Herbicidal rate of 90% or more (almost completely withered)).

Consider `CCCC(=O)Oc1c(C)nn(C)c(=O)c1-c1c(-c2ccc(C)cc2)sc2ccc(F)cc12` [2-013], for which the “herbicidal effect rating, N: redroot pigweed” value is 4 (Herbicidal rate of 70% or more and less than 90%).

The test is the same for the next values; noted with them: AAH 320 g/ha.
Regarding `CSCCSCc1ccc(-c2sc3ccccc3c2-c2c(O)c(C)nn(C)c2=O)cc1` [1-253], the “N: redroot pigweed, herbicidal effect rating” value is 3 (Herbicidal rate of 40% or more and less than 70%).

A further test has as its system green foxtail. The experiment in a line: Test Example 5: herbicidal effect by foliage application, plastic box (Table 20, symbol G). It counts as in vivo, green foxtail (Setaria viridis). The note with it: foliage application, 320 g/ha, 3 weeks after application. The essentials:
(§3)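 Plants were sown into sterilized diluvial soil under about 1.5 cm cover and kept in a greenhouse at 25° C. to 30° C. Fourteen days on, foliage received an even spray of the diluted emulsion. Herbicidal or crop effect was judged three weeks afterwards.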
For the compound `CSCCSCc1ccc(-c2sc3ccccc3c2-c2c(O)c(C)nn(C)c2=O)cc1` [1-253], the “effect on green foxtail (G)” value is 3 (Herbicidal rate of 40% or more and less than 70%).

Regarding `Cc1ccc(-c2sc3ccc(F)cc3c2-c2c(O)c(C)nn(C)c2=O)cc1` [2-012], the “effect on green foxtail (G)” value was 5 (Herbicidal rate of 90% or more (almost completely withered)).

Take `CCCC(=O)Oc1c(C)nn(C)c(=O)c1-c1c(-c2ccc(C)cc2)sc2ccc(F)cc12` [2-013]: the “effect on green foxtail (G)” value is on record as 5 (Herbicidal rate of 90% or more (almost completely withered)).

Another test deals with Italian ryegrass. Put plainly: Test Example 5: herbicidal effect by foliage application, plastic box (Table 20, symbol K). It counts as in vivo, Italian ryegrass (Lolium multiflorum). The note with it: foliage application, 320 g/ha, 3 weeks after application. The essentials:
as §3
Take `CSCCSCc1ccc(-c2sc3ccccc3c2-c2c(O)c(C)nn(C)c2=O)cc1` [1-253]: the “effect on Italian ryegrass (K)” value was 4 (Herbicidal rate of 70% or more and less than 90%).

For `Cc1ccc(-c2sc3ccc(F)cc3c2-c2c(O)c(C)nn(C)c2=O)cc1` [2-012], the “effect on Italian ryegrass (K)” value was 4 (Herbicidal rate of 70% or more and less than 90%).

With `CCCC(=O)Oc1c(C)nn(C)c(=O)c1-c1c(-c2ccc(C)cc2)sc2ccc(F)cc12` [2-013], the “effect on Italian ryegrass (K)” value was 4 (Herbicidal rate of 70% or more and less than 90%).

In another test the test system is lambsquarters. Put plainly: Test Example 5: herbicidal effect by foliage application, plastic box (Table 20, symbol O). In kind it is in vivo, lambsquarters (Chenopodium album). The note with it: foliage application, 320 g/ha, 3 weeks after application. The essentials:
as §3
For `CSCCSCc1ccc(-c2sc3ccccc3c2-c2c(O)c(C)nn(C)c2=O)cc1` [1-253], the “effect on lambsquarters (O)” value is 5 (Herbicidal rate of 90% or more (almost completely withered)).

As for `Cc1ccc(-c2sc3ccc(F)cc3c2-c2c(O)c(C)nn(C)c2=O)cc1` [2-012], the “effect on lambsquarters (O)” value was 4 (Herbicidal rate of 70% or more and less than 90%).

`CCCC(=O)Oc1c(C)nn(C)c(=O)c1-c1c(-c2ccc(C)cc2)sc2ccc(F)cc12` [2-013]: the “effect on lambsquarters (O)” value is 4 (Herbicidal rate of 70% or more and less than 90%).

For another test, the system named is persian speedwell. The experiment in a line: Test Example 5: herbicidal effect by foliage application, plastic box (Table 20, symbol R). In kind it is in vivo, Persian speedwell (Veronica persica). The settings on record: foliage application, 320 g/ha, 3 weeks after application. The essentials:
as §3
Take `CSCCSCc1ccc(-c2sc3ccccc3c2-c2c(O)c(C)nn(C)c2=O)cc1` [1-253]: the “effect on persian speedwell (R)” value is recorded as 5 (Herbicidal rate of 90% or more (almost completely withered)).

On to `Cc1ccc(-c2sc3ccc(F)cc3c2-c2c(O)c(C)nn(C)c2=O)cc1` [2-012], for which the “effect on persian speedwell (R)” value was 5 (Herbicidal rate of 90% or more (almost completely withered)).

On to `CCCC(=O)Oc1c(C)nn(C)c(=O)c1-c1c(-c2ccc(C)cc2)sc2ccc(F)cc12` [2-013], for which the “effect on persian speedwell (R)” value is 5 (Herbicidal rate of 90% or more (almost completely withered)).
